From patent US20250325576A1, “COMPOSITIONS FOR USE IN CARTILAGE BREAKDOWN” (Société des Produits Nestlé S.A., priority 2013, published 2025)

Tests used:
Format in all cases: cell-based
Settings in all cases: 1.5 μM each, 3 days
ADAMTS-5 = ADAMTS-5 mRNA expression relative to GAPDH, bovine primary chondrocytes in alginate beads (real-time PCR)
Experimental: (§1) The skin was removed from the foot. The articulation was opened transversally. Intra articular ligaments were transected. The opened articulation was washed with phosphate buffered saline. With a scalpel blade, full thickness slices of cartilage were dissected out and collected in DMEM high glucose with 10 mM hepes and 1% Penicillin-Streptomycin. Slices of cartilage were washed in DMEM high glucose with 10 mM hepes and 1% Penicillin-Streptomycin.
(§2) Cartilage was then digested successively by 0.5 mg/ml of hyluronidase during 30 minutes, 1.0 mg/ml of pronase E during 60 minutes and 1.0 mg/ml of collagenase overnight under slow agitation.
(§3) After the enzymatic incubation, the cell suspension was filtered through a 70 μm cell strainer to separate cell cluster and remove tissue debris. The cell suspension was centrifuged to pellet the cells. […]
(§4) Total RNA was isolated from pool of 40 beads and isolated using RNeasy kit from Qiagen. cDNA was obtained by reverse transcription of RNA with the Primescript 1st strand cDNA Synthesis kit from Takara. mRNA expression of ADAMTS-5, COX-2, MMP-13 and GAPDH were quantified in real-time PCR (SYBR Green)
(§5) Data were expressed as fold change in gene expression compared to negative control (cells cultured in complete medium).
(§6) Data were expressed as median±S.E.Median (2 experiments of 3 replicates each). […]

COX-2 = COX-2 mRNA expression relative to GAPDH, bovine primary chondrocytes in alginate beads (real-time PCR)
Experimental: as §1, §2, §3, §4, §5, §6

MMP-13 = MMP-13 mRNA expression relative to GAPDH, bovine primary chondrocytes in alginate beads (real-time PCR)
Experimental: as §1, §2, §3, §4, §5, §6

[1] = disease conditions (IL1a 10 ng/ml), vs IL1a
[2] = normal conditions (absence of IL1a), vs CTL-

## O=c1c(O)c(-c2ccc(O)c(O)c2)oc2cc(O)cc(O)c12 [Quercetin, quercetin]
ADAMTS-5; [1]
  ADAMTS-5 mRNA expression relative to GAPDH: decrease expression of ADAMTS-5
ADAMTS-5; [2]
  ADAMTS-5 mRNA expression relative to GAPDH: decrease expression of ADAMTS-5
COX-2; [1]
  COX-2 mRNA expression relative to GAPDH: decrease expression of COX-2
COX-2; [2]
  COX-2 mRNA expression relative to GAPDH: reduce expression of COX-2
MMP-13; [1]
  MMP-13 mRNA expression relative to GAPDH: decrease expression of MMP-13
MMP-13; [2]
  MMP-13 mRNA expression relative to GAPDH: decrease expression of MMP-13
